These results are taken from patent US11932636B2, “RAD51 inhibitors” (Cyteir Therapeutics, Inc., priority 2019, dated 2024).

Each structure is given as a SMILES string.

This experiment deals with Daudi cells (AID positive). The experiment in a line: Compound primary screening: cell death in AID positive Daudi cells (Cell-Titer Glo, Day 7). Format: cell-based. The conditions noted are these: Homo sapiens, 168 h; Daudi cells, AID positive; cell death on Day 7, Cell-Titer Glo; read-out: Cellular activity in AID + (Daudi). The procedure, abridged: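 AID-positive Daudi cells were seeded at 1250 cells per well and treated with serially diluted compound delivered from a DMSO/media master plate. Cultures were incubated at 37 °C, and cell death was measured on Day 7 with Cell-Titer Glo luminescence.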
As for `CC(C)OC(=O)N[C@H]1CC[C@H](c2ncc(-c3ccc(Nc4ncc[nH]4)cc3S(=O)(=O)N3CCC3)s2)CC1` [Compound 148, isopropyl trans-N-[4-[5-[2-(azetidin-1-ylsulfonyl)-4-(1H-imidazol-2-ylamino)phenyl]thiazol-2-yl]cyclohexyl]carbamate], the EC50 was below 100 nM.
Regarding `CCNS(=O)(=O)c1cc(Nc2cn[nH]n2)ccc1-c1cnc([C@H]2CC[C@H](NC(=O)OC(C)C)CC2)s1` [Compound 149, isopropyl trans-N-[4-[5-[2-(ethylsulfamoyl)-4-(2H-triazol-4-ylamino)phenyl]thiazol-2-yl]cyclohexyl]carbamate], the EC50 was below 100 nM.
Consider `CCNS(=O)(=O)c1cc(N(C)c2ncc[nH]2)ccc1-c1cnc([C@H]2CC[C@H](NC(=O)OC(C)C)CC2)s1` [Compound 150, isopropyl trans-N-[4-[5-[2-(ethylsulfamoyl)-4-[1H-imidazol-2-yl(methyl)amino]phenyl]thiazol-2-yl]cyclohexyl]carbamate], for which the EC50 lay within 100 to 1000 nM.
For `CC(C)OC(=O)N[C@H]1CC[C@H](c2ncc(-c3ccc(Nc4nnc[nH]4)cc3S(=O)(=O)NC(C)(C)C)s2)CC1` [Compound 151, isopropyl trans-N-[4-[5-[2-(tert-butylsulfamoyl)-4-(4H-1,2,4-triazol-3-ylamino)phenyl]thiazol-2-yl]cyclohexyl]carbamate] the value was below 100 nM; for `CCNS(=O)(=O)c1cc(Nc2nnc[nH]2)ccc1-c1cnc([C@H]2CC[C@H](NC(=O)OC(C)C)CC2)s1` [Compound 152, isopropyl trans-N-[4-[5-[2-(ethylsulfamoyl)-4-(4H-1,2,4-triazol-3-ylamino)phenyl]thiazol-2-yl]cyclohexyl]carbamate], below 100 nM.
Regarding `CC(C)OC(=O)N[C@H]1CC[C@H](c2ncc(-c3ccc(Nc4ncco4)cc3S(=O)(=O)N3CCCC3)s2)CC1` [Compound 153, isopropyl trans-[4-[5-[4-(oxazol-2-ylamino)-2-pyrrolidin-1-ylsulfonyl-phenyl]thiazol-2-yl]cyclohexyl]carbamate], the EC50 was below 100 nM.
For `CCNS(=O)(=O)c1cc(Nc2nccn2C(C)C)ccc1-c1cnc([C@H]2CC[C@H](NC(=O)OC(C)C)CC2)s1` [Compound 154, isopropyl trans-N-[4-[5-[2-(ethylsulfamoyl)-4-[(1-isopropylimidazol-2-yl)amino]phenyl]thiazol-2-yl]cyclohexyl]carbamate] the value was below 100 nM; for `CCNS(=O)(=O)c1cc(Nc2ccnc(Cl)n2)ccc1-c1cnc([C@H]2CC[C@H](NC(=O)OC(C)C)CC2)s1` [Compound 155, isopropyl trans-N-[4-[5-[4-[(2-chloropyrimidin-4-yl)amino]-2-(ethylsulfamoyl)phenyl]thiazol-2-yl]cyclohexyl]carbamate], 100 to 1000 nM; for `CCNS(=O)(=O)c1cc(Nc2ccnc(=O)[nH]2)ccc1-c1cnc([C@H]2CC[C@H](NC(=O)OC(C)C)CC2)s1` [Compound 156, isopropyl trans-N-[4-[5-[2-(ethylsulfamoyl)-4-[(2-hydroxypyrimidin-4-yl)amino]phenyl]thiazol-2-yl]cyclohexyl]carbamate], 100 to 1000 nM.
For `CCNS(=O)(=O)c1cc(Nc2ccc(CC)nn2)ccc1-c1cnc([C@H]2CC[C@H](NC(=O)OC(C)C)CC2)s1` [Compound 157, isopropyl trans-N-[4-[5-[4-[(6-ethylpyridazin-3-yl)amino]-2-(ethylsulfamoyl)phenyl]thiazol-2-yl]cyclohexyl]carbamate] the value was below 100 nM.
For `CCNS(=O)(=O)c1cc(Nc2cc(CC)cnn2)ccc1-c1cnc([C@H]2CC[C@H](NC(=O)OC(C)C)CC2)s1` [Compound 158, isopropyl trans-N-[4-[5-[4-[(5-ethylpyridazin-3-yl)amino]-2-(ethylsulfamoyl)phenyl]thiazol-2-yl]cyclohexyl]carbamate] the value was 100 to 1000 nM; for `CCNS(=O)(=O)c1cc(Nc2ccc(Cl)nn2)ccc1-c1cnc([C@H]2CC[C@H](NC(=O)OC(C)C)CC2)s1` [Compound 159, isopropyl trans-N-[4-[5-[4-[(6-chloropyridazin-3-yl)amino]-2-(ethylsulfamoyl)phenyl]thiazol-2-yl]cyclohexyl]carbamate], below 100 nM; for `CCNS(=O)(=O)c1cc(Nc2ccc(=O)[nH]n2)ccc1-c1cnc([C@H]2CC[C@H](NC(=O)OC(C)C)CC2)s1` [Compound 160, isopropyl trans-N-[4-[5-[2-(ethylsulfamoyl)-4-[(6-oxo-1H-pyridazin-3-yl)amino]phenyl]thiazol-2-yl]cyclohexyl]carbamate], 100 to 1000 nM.
Turning to `CCNS(=O)(=O)c1cc(Nc2cc(C)cnn2)ccc1-c1cnc([C@H]2CC[C@H](NC(=O)OC(C)C)CC2)s1` [Compound 161, isopropyl trans-N-[4-[5-[2-(ethylsulfamoyl)-4-[(5-methylpyridazin-3-yl)amino]phenyl]thiazol-2-yl]cyclohexyl]carbamate], the EC50 was below 100 nM.
With `CCNS(=O)(=O)c1cc(Nc2ccc(C)nn2)ccc1-c1cnc([C@H]2CC[C@H](NC(=O)OC(C)C)CC2)s1` [Compound 162, isopropyl trans-N-[4-[5-[2-(ethylsulfamoyl)-4-[(6-methylpyridazin-3-yl)amino]phenyl]thiazol-2-yl]cyclohexyl]carbamate], the EC50 was below 100 nM.
For the compound `CCNS(=O)(=O)c1cc(Nc2cnc(C(C)C)cn2)ccc1-c1cnc([C@H]2CC[C@H](NC(=O)OC(C)C)CC2)s1` [Compound 163, isopropyl trans-N-[4-[5-[2-(ethylsulfamoyl)-4-[(5-isopropylpyrazin-2-yl)amino]phenyl]thiazol-2-yl]cyclohexyl]carbamate], the EC50 lay in the range of 100 to 1000 nM.
For `CCNS(=O)(=O)c1cc(Nc2cc(C(C)C)cnn2)ccc1-c1cnc([C@H]2CC[C@H](NC(=O)OC(C)C)CC2)s1` [Compound 164, isopropyl trans-N-[4-[5-[2-(ethylsulfamoyl)-4-[(5-isopropylpyridazin-3-yl)amino]phenyl]thiazol-2-yl]cyclohexyl]carbamate] the value was 100 to 1000 nM; for `CCNS(=O)(=O)c1cc(NC2(C)COC2)ccc1-c1cnc([C@H]2CC[C@H](NC(=O)OC)CC2)s1` [Compound 165, methyl trans-N-[4-[5-[2-(ethylsulfamoyl)-4-[(3-methyl-oxetan-3-yl)amino]phenyl]thiazol-2-yl]cyclohexyl]carbamate], 1000 to 10000 nM.
With `CCNS(=O)(=O)c1cc(Nc2cn[nH]c2)ccc1-c1cnc([C@H]2CC[C@H](NC(=O)OC)CC2)s1` [Compound 166, methyl trans-N-[4-[5-[2-(ethylsulfamoyl)-4-[(1H-pyrazol-4-yl)amino]phenyl]thiazol-2-yl]cyclohexyl]carbamate], the EC50 lay in the range of 1000 to 10000 nM.
For `CCNS(=O)(=O)c1cc(Nc2ccn[nH]2)ccc1-c1cnc([C@H]2CC[C@H](NC(=O)OC)CC2)s1` [Compound 167, methyl trans-N-[4-[5-[2-(ethylsulfamoyl)-4-[(1H-pyrazol-5-yl)amino]phenyl]thiazol-2-yl]cyclohexyl]carbamate] the value was 100 to 1000 nM; for `CCNS(=O)(=O)c1cc(Nc2ccnn2C(C)C)ccc1-c1cnc([C@H]2CC[C@H](NC(=O)OC(C)(C)C)CC2)s1` [Compound 170, tert-butyl trans-N-[4-[5-[2-(ethylsulfamoyl)-4-[(2-isopropylpyrazol-3-yl)amino]phenyl]thiazol-2-yl]cyclohexyl]carbamate], 100 to 1000 nM; for `CCNS(=O)(=O)c1cc(Nc2cc(C(C)C)ncn2)ccc1-c1cnc([C@H]2CC[C@H](NC(=O)OC(C)C)CC2)s1` [Compound 171, isopropyl trans-N-[4-[5-[2-(ethylsulfamoyl)-4-[(6-isopropylpyrimidin-4-yl)amino]phenyl]thiazol-2-yl]cyclohexyl]carbamate], 100 to 1000 nM.
Regarding `CCNS(=O)(=O)c1cc(Nc2ccc(=O)n(C)n2)ccc1-c1cnc([C@H]2CC[C@H](NC(=O)OC(C)C)CC2)s1` [Compound 172, isopropyl trans-N-[4-[5-[2-(ethylsulfamoyl)-4-[(1-methyl-6-oxo-pyridazin-3-yl)amino]phenyl]thiazol-2-yl]cyclohexyl]carbamate], the EC50 is 100 to 1000 nM.
For the compound `CC(C)OC(=O)N[C@H]1CC[C@H](c2ncc(-c3ccc(Nc4ccc(Cl)nn4)cc3S(=O)(=O)NC(C)(C)C)s2)CC1` [Compound 173, isopropyl trans-N-[4-[5-[2-(tert-butylsulfamoyl)-4-[(6-chloropyridazin-3-yl)amino]phenyl]thiazol-2-yl]cyclohexyl]carbamate], the EC50 lay in the range of 100 to 1000 nM.
With `CC(C)OC(=O)N[C@H]1CC[C@H](c2ncc(-c3ccc(Nc4cccnn4)cc3S(=O)(=O)NC(C)(C)C)s2)CC1` [Compound 174, isopropyl trans-N-[4-[5-[2-(tert-butylsulfamoyl)-4-(pyridazin-3-ylamino)phenyl]thiazol-2-yl]cyclohexyl]carbamate], the EC50 lay in the range of 100 to 1000 nM.
